{
  "source": "patent US20080311212A1",
  "about": "“CRYSTALLINE ISOXAZOLE DERIVATIVE AND PHARMACEUTICAL PREPARATION THEREOF” (Dainippon Sumitomo Pharma Co., Ltd., priority 2001, published 2008)",
  "type_in_all_cases": "physicochemical",
  "key": {"[1]": {"assay": "Dry pneumatic grinding of crystals 1 (A-O Jet Mill): amount adhering to inside of apparatus", "settings": "7 g crystals charged, pneumatic grinding at 0.49 MPa", "source_text": "Crystals were charged into an A-O Jet Mill (mfd. by Seishin Enterprise Co., Ltd.) and subjected to pneumatic grinding at a forcing pressure of 0.49 MPa and a grinding pressure of 0.49 MPa."}, "[2]": {"assay": "Dry pneumatic grinding of crystals 2 (Jet O Mill): particle size distribution of ground crystals", "settings": "one run of dry pneumatic grinding, 0.44-0.49 MPa, laser diffraction (dry measurement)", "source_text": "Crystals were charged into a Jet 0 Mill Model JOMO101 (mfd. by Seishin Enterprise Co., Ltd.) and subjected to pneumatic grinding at a forcing pressure and a grinding pressure (which had been set at the same pressure) of 0.44 MPa to 0.49 MPa. […] A laser diffraction particle size distribution meter (dry measurement) was used for measuring the particle size distribution. It has already been confirmed that repeated grinding or the increase of the grinding pressure is necessary for further particle size reduction."}, "[3]": {"assay": "Wet high-pressure grinding of crystals (Microfluidizer): particle size distribution of ground crystals", "settings": "wet high-pressure grinding in water, 100 MPa, laser diffraction (wet measurement)", "experimental": "Crystals were charged into Microfluidizer Model M110Y (mfd. by Mizuho Industrial Co., Ltd.) together with water and subjected to high-pressure grinding. […] In this case, the α type crystals were solidified during the grinding. […] The particle size distribution was measured by dispersing the ground crystals in water in an agate mortar. A laser diffraction particle size distribution meter (wet measurement) was used for measuring the particle size distribution."}, "[4]": {"assay": "Crystal type stability on grinding / in aqueous suspension", "settings": "for change of crystal type during grinding: α: wet grinding under high-pressure conditions, suspended in water, β: pneumatic and wet grinding", "source_text": "When the α type crystals were subjected to pneumatic grinding, they adhered remarkably to the inside of a grinding apparatus. Therefore, their pulverization to a desirable size by one run of grinding operation was difficult, so that it was necessary to grind them repeatedly several times. Since it often became necessary to remove the crystals adhering to the inside, the grinding efficiency and the yield were low.\nWhen the β type crystals were subjected to pneumatic grinding, they hardly adhered to the inside of a grinding apparatus, were easy to handle in a process of their formulation into a pharmaceutical preparation, and could be continuously ground. The β type crystals could easily be ground also by a wet grinding method and made it possible to produce finer powder that could be formulated into a pharmaceutical preparation.\nThe β type crystals of the present invention may be obtained also by stirring phosphate or a type crystals of the isoxazole derivative of the formula 1 in a suspended state in water for a definite time. In the case of the phosphate, the β type crystals could be obtained, for example, by stirring the phosphate at 50° C. for about 5 hours. […] So long as seed crystals for the β type crystals are used, it is also possible to produce the β type crystals by using any of hydrophobic organic solvents such as aromatic hydrocarbons (e.g. toluene and benzene), ethers (e.g. t-butyl methyl ether, diisopropyl ether and diethyl ether), aliphatic hydrocarbons (e.g. cyclohexane, hexane and heptane), halogen-containing solvents (e.g. chloroform, methylene chloride and 1,2-dichloroethane) and esters (e.g. ethyl acetate). For example, the isoxazole derivative of the formula 1 may be crystallized by dissolving the derivative in a mixed solvent of toluene and 2-propanol and adding hexane thereto."}},
  "data": [
    {"smiles": "C[C@@H](c1ccc(-c2ccccc2)c(F)c1)c1cc(/N=C(/N)N2CCOCC2)on1", "note": "[α type crystals, 3-[(1S)-1-(2-fluorobiphenyl-4-yl)ethyl]-5-{[amino(morpholin-4-yl)methylene]amino}isoxazole]", "values": [
      {"measurement": "Adhering amount", "setting": "[1]", "value": 2.06, "unit": "g"},
      {"measurement": "Undersize particle D50% particle size", "setting": "[2]; D50%", "value": 79.3, "unit": "μm"},
      {"measurement": "Undersize particle D50% particle size", "setting": "[2]; first D50% line", "value": 27.6, "unit": "μm"},
      {"measurement": "Undersize particle D50% particle size", "setting": "[3]; D50%", "value": 58.1, "unit": "μm"},
      {"measurement": "Undersize particle D50% particle size", "setting": "[3]; first D50% line", "value": 26.1, "unit": "μm"},
      {"measurement": "change of crystal type during grinding", "setting": "[4]", "value": "changed to the β type crystals"}
    ]},
    {"smiles": "C[C@@H](c1ccc(-c2ccccc2)c(F)c1)c1cc(/N=C(/N)N2CCOCC2)on1", "note": "[β type crystals, 3-[(1S)-1-(2-fluorobiphenyl-4-yl)ethyl]-5-{[amino(morpholin-4-yl)methylene]amino}isoxazole]", "values": [
      {"measurement": "Adhering amount", "setting": "[1]", "value": 0.00, "unit": "g"},
      {"measurement": "Undersize particle D50% particle size", "setting": "[2]; D50%", "value": 10.2, "unit": "μm"},
      {"measurement": "Undersize particle D50% particle size", "setting": "[2]; first D50% line", "value": 4.7, "unit": "μm"},
      {"measurement": "Undersize particle D50% particle size", "setting": "[3]; D50%", "value": 3.2, "unit": "μm"},
      {"measurement": "Undersize particle D50% particle size", "setting": "[3]; first D50% line", "value": 1.7, "unit": "μm"},
      {"measurement": "thermodynamic stability of crystal type", "setting": "[4]; stirring phosphate or α type crystals suspended in water gives β type crystals", "value": "thermodynamically more stable than the α type crystals"},
      {"measurement": "change of crystal type during grinding", "setting": "[4]", "value": "did not change the crystal type"}
    ]}
  ]
}
